Measured values as given in paper PMC10531082, “Antiproliferative and Antimetastatic Properties of 16-Azidomethyl Substituted 3-O-Benzyl Estrone Analogs” (International Journal of Molecular Sciences, 2023).
Like-named read-outs stand apart in the source and are kept apart here.

Assays:
[1] = test system: HeLa; test: cells; parameters: MTT antiproliferative assay, absorbance at 545 nm, inhibition versus untreated control; details: Homo sapiens; for inhibition at 10 µM / inhibition at 30 µM: read-out: Growth inhibition (%) HeLa
Experimental: (§1) The antiproliferative capacities of the prepared compounds were determined by employing the MTT assay against a panel of human adherent cancer cell lines isolated from breast (MCF-7 and MDA-MB-231) or cervical (HeLa and SiHa) tumors. All compounds were tested at two concentrations (10 and 30 μM). When >50% of antiproliferative capacity was obtained at 10 μM, the assays were repeated with a broader concentration range (0.1–30 μM), and IC50 values were calculated (Figure 2, Supplementary Table S1, Supplementary Figure S1). […] MTT assays were performed against the non-cancerous fibroblast cell line NIH/3T3 to obtain preliminary data on cancer selectivity of 16AABE and 16BABE. […] The ratios of IC50 values obtained against cancer cells and fibroblasts were in the range of 0.2 and 0.5, indicating substantial cancer selectivity of these two compounds (Table 1). Cancer cells were seeded onto a 96-well microplate for the proliferation assay at a density of 5000 cells/well. After 24 h of incubation, 200 μL of new medium containing the test compounds at 10 or 30 µM concentrations was added. Absorbance of the reduced MTT solution was measured at 545 nm using a microplate reader, with untreated cells serving as the negative control. In the case of active compounds (i.e., >50% cell growth inhibition at 10 μM), the assay was repeated with a series of dilutions, and sigmoidal dose–response curves were fitted to the obtained data. The IC50 values, representing the concentration at which cell proliferation was reduced by 50% compared with the untreated control, were calculated using GraphPad Prism 5 (GraphPad Software, San Diego, CA, USA). Each in vitro experiment was conducted on two microplates with a minimum of five parallel wells. […] Cisplatin was used as a reference agent.

[2] = test system: MCF-7; test: cells; parameters: MTT antiproliferative assay, absorbance at 545 nm, inhibition versus untreated control; details: Homo sapiens, MCF7; for inhibition at 10 µM / inhibition at 30 µM: read-out: Growth inhibition (%) MCF-7
Experimental: as §1

[3] = test system: MDA-MB-231; test: cells; parameters: MTT antiproliferative assay, absorbance at 545 nm, inhibition versus untreated control; details: Homo sapiens; for inhibition at 10 µM / inhibition at 30 µM: read-out: Growth inhibition (%) MDA-MB-231
Experimental: as §1

[4] = test system: SiHa; test: cells; parameters: MTT antiproliferative assay, absorbance at 545 nm, inhibition versus untreated control; details: Homo sapiens; for inhibition at 10 µM / inhibition at 30 µM: read-out: Growth inhibition (%) SiHa
Experimental: as §1

[5] = molecular target: T1, estrogen receptor (ERα) (Homo sapiens, UniProt P03372); test: estrogen-responsive luciferase reporter assay in T47D-KBluc cells (agonism); format: cell-based
T1 construct: gene ESR1
T1 sequence (P03372 whole entry): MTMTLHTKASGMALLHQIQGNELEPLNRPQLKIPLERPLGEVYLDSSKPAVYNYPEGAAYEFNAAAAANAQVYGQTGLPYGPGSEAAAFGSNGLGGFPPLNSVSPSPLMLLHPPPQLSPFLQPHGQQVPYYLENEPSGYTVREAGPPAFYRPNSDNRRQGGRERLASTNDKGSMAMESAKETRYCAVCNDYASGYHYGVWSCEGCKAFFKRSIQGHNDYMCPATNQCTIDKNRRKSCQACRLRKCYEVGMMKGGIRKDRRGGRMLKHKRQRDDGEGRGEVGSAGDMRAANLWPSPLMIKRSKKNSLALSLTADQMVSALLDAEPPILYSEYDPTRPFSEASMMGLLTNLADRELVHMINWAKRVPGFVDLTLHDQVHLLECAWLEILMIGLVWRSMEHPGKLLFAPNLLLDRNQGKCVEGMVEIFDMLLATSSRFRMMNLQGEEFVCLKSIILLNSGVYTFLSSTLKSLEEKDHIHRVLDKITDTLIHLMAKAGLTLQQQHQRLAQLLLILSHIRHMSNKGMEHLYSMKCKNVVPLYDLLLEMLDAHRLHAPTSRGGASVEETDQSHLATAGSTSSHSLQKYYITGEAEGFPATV

[6] = in vitro; parameters: MTT assay on non-cancerous NIH/3T3 fibroblasts, absorbance at 545 nm, selectivity counter-screen; details: mouse, nih/3t3 cells; read-out: IC50 NIH/3T3
Experimental: The antiproliferative capacities of the prepared compounds were determined by employing the MTT assay against a panel of human adherent cancer cell lines isolated from breast (MCF-7 and MDA-MB-231) or cervical (HeLa and SiHa) tumors. All compounds were tested at two concentrations (10 and 30 μM). When >50% of antiproliferative capacity was obtained at 10 μM, the assays were repeated with a broader concentration range (0.1–30 μM), and IC50 values were calculated (Figure 2, Supplementary Table S1, Supplementary Figure S1). […] MTT assays were performed against the non-cancerous fibroblast cell line NIH/3T3 to obtain preliminary data on cancer selectivity of 16AABE and 16BABE. […] The ratios of IC50 values obtained against cancer cells and fibroblasts were in the range of 0.2 and 0.5, indicating substantial cancer selectivity of these two compounds (Table 1). The antiproliferative activity of the presented compounds were evaluated against a panel of human gynecological cancer cell lines. MCF-7 and MDA-MB-231 cell lines were derived from breast cancers, while HeLa and SiHa cell lines originated from cervical cancers of different pathological backgrounds. […] Absorbance of the reduced MTT solution was measured at 545 nm using a microplate reader, with untreated cells serving as the negative control. […]

[7] = test system: HeLa; test: cells; parameters: MTT assay, growth inhibition of cells relative to untreated control; details: Homo sapiens, HeLa; for inhibition at 10 µM: read-out: Growth inhibition (%) at 10 uM; for inhibition at 30 µM: read-out: Growth inhibition (%) at 30 uM
Experimental: (§2) Cancer cells were seeded onto a 96-well microplate for the proliferation assay at a density of 5000 cells/well. After 24 h of incubation, 200 μL of new medium containing the test compounds at 10 or 30 µM concentrations was added. Absorbance of the reduced MTT solution was measured at 545 nm using a microplate reader, with untreated cells serving as the negative control. In the case of active compounds (i.e., >50% cell growth inhibition at 10 μM), the assay was repeated with a series of dilutions, and sigmoidal dose–response curves were fitted to the obtained data. The IC50 values, representing the concentration at which cell proliferation was reduced by 50% compared with the untreated control, were calculated using GraphPad Prism 5 (GraphPad Software, San Diego, CA, USA). Each in vitro experiment was conducted on two microplates with a minimum of five parallel wells. […] Cisplatin was used as a reference agent. The antiproliferative capacities of the prepared compounds were determined by employing the MTT assay against a panel of human adherent cancer cell lines isolated from breast (MCF-7 and MDA-MB-231) or cervical (HeLa and SiHa) tumors. All compounds were tested at two concentrations (10 and 30 μM). When >50% of antiproliferative capacity was obtained at 10 μM, the assays were repeated with a broader concentration range (0.1–30 μM), and IC50 values were calculated (Figure 2, Supplementary Table S1, Supplementary Figure S1). […] MTT assays were performed against the non-cancerous fibroblast cell line NIH/3T3 to obtain preliminary data on cancer selectivity of 16AABE and 16BABE. […] The ratios of IC50 values obtained against cancer cells and fibroblasts were in the range of 0.2 and 0.5, indicating substantial cancer selectivity of these two compounds (Table 1).

[8] = test system: MCF-7; test: cells; parameters: MTT assay, growth inhibition of cells relative to untreated control; details: Homo sapiens, MCF7; for inhibition at 10 µM: read-out: Growth inhibition (%) at 10 uM; for inhibition at 30 µM: read-out: Growth inhibition (%) at 30 uM
Experimental: as §2

[9] = test system: MDA-MB-231; test: cells; parameters: MTT assay, growth inhibition of cells relative to untreated control; details: Homo sapiens, MDA-MB-231; for inhibition at 10 µM: read-out: Growth inhibition (%) at 10 uM; for inhibition at 30 µM: read-out: Growth inhibition (%) at 30 uM
Experimental: as §2

[10] = test system: NIH/3T3; test: cells; parameters: MTT assay, growth inhibition of cells relative to untreated control; details: Mus musculus, NIH3T3; read-out: Growth inhibition (%) at 30 uM
Experimental: as §2

[11] = test system: SiHa; test: cells; parameters: MTT assay, growth inhibition of cells relative to untreated control; details: Homo sapiens, SiHa; for inhibition at 10 µM: read-out: Growth inhibition (%) at 10 uM; for inhibition at 30 µM: read-out: Growth inhibition (%) at 30 uM
Experimental: as §2

Structure (SMILES)	inhibition at 10 µM [1] [%]	inhibition at 30 µM [1] [%]	inhibition at 10 µM [2] [%]	inhibition at 30 µM [2] [%]	inhibition at 10 µM [3] [%]	inhibition at 30 µM [3] [%]	inhibition at 10 µM [4] [%]	inhibition at 30 µM [4] [%]	IC50 [1] [µM]	IC50 [2] [µM]	IC50 [3] [µM]	IC50 [4] [µM]	CC50 [6] [µM]	inhibition at 10 µM [7] [%]	inhibition at 30 µM [7] [%]	inhibition at 10 µM [8] [%]	inhibition at 30 µM [8] [%]	inhibition at 10 µM [9] [%]	inhibition at 30 µM [9] [%]	inhibition at 30 µM [10] [%]	further results
C[C@]12CC[C@@H]3c4ccc(OCc5ccccc5)cc4CC[C@H]3[C@@H]1C[C@@H](CN=[N+]=[N-])[C@@H]2O [compound 3, 3]	25 ± 2.26	93.35 ± 0.32	27.3 ± 1.28	92.55 ± 0.18	33.5 ± 2.92	89 ± 0.9	< 20	86.46 ± 0.36													
C[C@]12CC[C@@H]3c4ccc(OCc5ccccc5)cc4CC[C@H]3[C@@H]1C[C@H](CN=[N+]=[N-])C2=O [16BABE, 16β-azidomethyl-3-benzyloxyestra-1,3,5(10)-trien-17-on]									4.6	3.15	8.13	3.85	18.9	93.4 ± 0.13	94.33 ± 0.32	92.94 ± 0.37	93.79 ± 0.4	93.65 ± 0.24	95.03 ± 0.23	94.8 ± 1.63	EC50 [5]: ~0.178 µM; inhibition at 10 µM [11]: 90.73 ± 0.53%; inhibition at 30 µM [11]: 91.08 ± 0.55%
C[C@]12CC[C@@H]3c4ccc(OCc5ccccc5)cc4CC[C@H]3[C@@H]1C[C@@H](CN=[N+]=[N-])C2=O [16AABE, 16α-azidomethyl-3-benzyloxyestra-1,3,5(10)-trien-17-on]									5.01	3.13	4.72	4.1	13.6	93.22 ± 0.92	93.96 ± 0.23	91.73 ± 0.71	93.85 ± 0.22	93.53 ± 0.17	95.11 ± 0.31	98.29 ± 0.41	inhibition at 10 µM [11]: 90.1 ± 0.66%; inhibition at 30 µM [11]: 91.48 ± 0.55%
C[C@]12CC[C@@H]3c4ccc(OCc5ccccc5)cc4CC[C@H]3[C@@H]1C[C@H](CN=[N+]=[N-])[C@H]2O [compound 2, 2]	29.1 ± 1.06	55.5 ± 2.06	20.2 ± 2.19	51.9 ± 1.85	45.1 ± 1.69	64.2 ± 1.39		43.2 ± 2.58													
C[C@]12CC[C@@H]3c4ccc(OCc5ccccc5)cc4CC[C@H]3[C@@H]1C[C@H](CN=[N+]=[N-])[C@@H]2O [compound 1, 1]	33.97 ± 0.33	93.1 ± 0.21	38.8 ± 0.81	92.64 ± 0.22	34.07 ± 0.27	92.92 ± 0.09	< 20	89.93 ± 0.2													
C[C@]12CC[C@@H]3c4ccc(OCc5ccccc5)cc4CC[C@H]3[C@@H]1C[C@@H](CN=[N+]=[N-])[C@H]2O [compound 4, 4]	26.6 ± 1.78	52.89 ± 0.49	< 20	52.4 ± 2.5	25.1 ± 2.83	57.3 ± 0.98	< 20	31.9 ± 0.69													
